According to article PMC4583449, “Characterisation of (R)-2-(2-Fluorobiphenyl-4-yl)-N-(3-Methylpyridin-2-yl)Propanamide as a Dual Fatty Acid Amide Hydrolase: Cyclooxygenase Inhibitor” (PLoS ONE, 2015):
Where “and” joins values, the source holds several entries; their conditions need not be identical. Equal entries are not always repeated. Where two headings read alike, the source gives them in different places.

Assays:
Type in all cases: biochemical
human recombinant COX-2 = target: T1, human recombinant COX-2 (Homo sapiens, UniProt P35354); test: COX-2 inhibition, oxygraphic method (oxygen electrode); details: no preincubation phase, approximate, from initial velocities
T1 construct: purchased Cayman Chemical Co. 60122
T1 sequence (P35354 18-604): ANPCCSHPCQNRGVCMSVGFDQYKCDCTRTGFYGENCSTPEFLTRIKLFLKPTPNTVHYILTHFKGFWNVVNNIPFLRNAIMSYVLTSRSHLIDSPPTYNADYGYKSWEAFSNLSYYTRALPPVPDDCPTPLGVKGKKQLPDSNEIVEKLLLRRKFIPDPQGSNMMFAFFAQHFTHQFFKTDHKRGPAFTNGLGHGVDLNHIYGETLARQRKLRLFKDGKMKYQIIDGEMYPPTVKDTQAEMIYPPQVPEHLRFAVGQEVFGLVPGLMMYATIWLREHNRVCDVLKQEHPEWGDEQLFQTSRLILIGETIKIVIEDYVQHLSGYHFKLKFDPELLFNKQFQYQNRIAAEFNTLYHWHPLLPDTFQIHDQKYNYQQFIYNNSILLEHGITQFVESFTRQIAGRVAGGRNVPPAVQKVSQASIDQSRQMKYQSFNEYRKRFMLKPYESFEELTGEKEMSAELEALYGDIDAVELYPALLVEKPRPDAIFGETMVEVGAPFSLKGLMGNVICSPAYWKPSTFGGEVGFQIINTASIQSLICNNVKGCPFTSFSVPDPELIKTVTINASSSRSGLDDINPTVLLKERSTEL
Protocol: (§1) The assay was performed according to Meade et al. with minor modifications. An oxygen electrode chamber with integral stirring (Oxygraph System, Hansatech Instruments, King´s Lynn, U.K.) was calibrated daily to ambient temperature and air pressure. The assay buffer contained 0.1 M Tris-HCl buffer pH 7.4, 1 μM haematin, 2 mM phenol, 5 mM EDTA, 10 μM substrate (arachidonic acid or 2-AG) (final assay volume was 2 ml). After addition of (R)- or (S)-Flu-AM1 dissolved in ethanol (final assay concentration 1%), a baseline was established for 5 min before initiation of reaction by addition of 200 units ovine COX-1 or human recombinant COX-2. The change in oxygen consumption as a measurement of enzyme activity was monitored for approximately 5 min.

rat brain FAAH = target: T2, rat brain FAAH (Rattus norvegicus, UniProt P97612); test: [3H]AEA hydrolysis in rat brain homogenates; details: current authors, unpublished data; read-out: IC50 inhibition of [3H]AEA hydrolysis in rat brain homogenates
T2 construct: the racemate was studied in rat brain homogenates, whereas mouse brain homogenates were used here; from tissue; host or cells: rat brain homogenates
T2 sequence (P97612 1-579): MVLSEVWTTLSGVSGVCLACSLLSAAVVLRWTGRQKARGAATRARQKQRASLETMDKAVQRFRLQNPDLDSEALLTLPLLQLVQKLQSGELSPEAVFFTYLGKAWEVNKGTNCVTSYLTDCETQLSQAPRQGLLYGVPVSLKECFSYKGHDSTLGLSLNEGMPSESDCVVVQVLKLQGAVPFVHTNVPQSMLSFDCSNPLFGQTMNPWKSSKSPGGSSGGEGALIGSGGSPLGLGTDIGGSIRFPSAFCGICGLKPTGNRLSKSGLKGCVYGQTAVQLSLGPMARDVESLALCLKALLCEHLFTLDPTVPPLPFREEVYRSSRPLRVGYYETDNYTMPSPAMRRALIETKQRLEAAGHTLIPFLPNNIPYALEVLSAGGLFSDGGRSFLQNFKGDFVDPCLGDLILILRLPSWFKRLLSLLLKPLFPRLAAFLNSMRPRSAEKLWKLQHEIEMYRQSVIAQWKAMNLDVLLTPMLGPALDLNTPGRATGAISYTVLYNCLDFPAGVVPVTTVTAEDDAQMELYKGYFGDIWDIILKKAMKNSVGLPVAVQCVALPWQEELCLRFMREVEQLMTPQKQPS

ovine COX-1 = target: T3, ovine COX-1 (Ovis aries, UniProt P05979); test: COX-1 inhibition, oxygraphic method (oxygen electrode); details: 10 μM arachidonic acid; no preincubation phase; approximate, from initial velocities
T3 construct: purchased Cayman Chemical Co. 60100
T3 sequence (P05979 25-600): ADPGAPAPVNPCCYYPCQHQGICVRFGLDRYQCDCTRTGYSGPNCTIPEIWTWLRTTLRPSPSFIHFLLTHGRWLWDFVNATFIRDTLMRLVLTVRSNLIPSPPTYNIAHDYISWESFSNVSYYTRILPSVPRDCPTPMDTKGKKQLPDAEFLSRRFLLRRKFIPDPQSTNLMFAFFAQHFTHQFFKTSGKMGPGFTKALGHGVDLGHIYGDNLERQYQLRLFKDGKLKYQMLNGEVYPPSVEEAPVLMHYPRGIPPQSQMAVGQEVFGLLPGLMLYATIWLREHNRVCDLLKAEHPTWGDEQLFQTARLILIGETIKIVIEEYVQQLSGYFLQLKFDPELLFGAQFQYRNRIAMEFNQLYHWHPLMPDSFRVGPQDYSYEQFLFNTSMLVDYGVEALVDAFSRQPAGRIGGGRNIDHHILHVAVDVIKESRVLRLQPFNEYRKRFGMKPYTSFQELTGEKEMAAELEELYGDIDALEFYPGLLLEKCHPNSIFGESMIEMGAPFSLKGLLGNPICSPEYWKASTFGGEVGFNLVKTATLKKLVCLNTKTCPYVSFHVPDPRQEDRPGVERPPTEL
Protocol: as §1

Cc1cccnc1NC(=O)[C@H](C)c1ccc(-c2ccccc2)c(F)c1 [(R)-Flu-AM1, (R)-2-(2-Fluorobiphenyl-4-yl)-N-(3-Methylpyridin-2-yl)Propanamide]
IC50 (human recombinant COX-2; 10 μM 2-AG, read-out: IC50 COX-2 (2-AG)): 1 µM and ~1 µM | IC50 (human recombinant COX-2; 10 μM arachidonic acid, read-out: IC50 COX-2 (arachidonic acid)): 20 µM and ~20 µM | IC50 (rat brain FAAH): 0.74 µM | IC50 (ovine COX-1): 6 µM and ~6 µM
